Assays:
[1] = system: normal NK cells expanded with K562-aAPC; test: percent inhibition of viability; higher = more inhibition; settings: 72 h, IL-2 2.5 ng/mL
Method: (§1)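 Drug sensitivity and resistance testing on K562-aAPC-expanded normal NK cells: 5 concentrations (10-fold steps over a 10,000-fold range), 72 h at 37 °C, viability by CellTiter-Glo normalised to DMSO and benzethonium chloride controls; DSS from the fitted curve.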

DERL-7 (IL-2 2.5 ng/mL) [2] = test: as above; settings: 72 h
IMC-1 (IL-2 20 ng/mL) [3] = test: as above; settings: 72 h
KAI3 (IL-2 2.5 ng/mL) [4] = test: as above; settings: 72 h
KHYG-1 (IL-2 2.5 ng/mL) [5] = test: as above; settings: 72 h
NK-92 (IL-2 2.5 ng/mL) [6] = test: as above; settings: 72 h
NK-YS (IL-2 2.5 ng/mL) [7] = test: as above; settings: 72 h
NKL (IL-2 2.5 ng/mL) [8] = test: as above; settings: 72 h
SNK-6 (IL-2 2.5 ng/mL) [9] = test: as above; settings: 72 h
YT (IL-2 2.5 ng/mL) [10] = test: as above; settings: 72 h
[11] = system: normal primary NK cells, pool 1 (3 donors) (IL-2 2.5 ng/mL); test: as above; settings: 72 h
[12] = system: normal primary NK cells, pool 1 (3 donors), resting (IL-2 0 ng/mL); test: as above; settings: 72 h
[13] = system: normal primary NK cells, pool 2 (3 donors) (IL-2 2.5 ng/mL); test: as above; settings: 72 h
[14] = system: normal primary NK cells, pool 3 (3 donors) (IL-2 2.5 ng/mL); test: as above; settings: 72 h
[15] = system: normal NK cells expanded with K562-aAPC; test: drug sensitivity score (DSS) (DSS units); higher = more sensitive; extreme values may be limits of the assay; settings: 72 h; IL-2 2.5 ng/mL
Method: as §1

DERL-7 (IL-2 2.5 ng/mL) [16] = test: as above; settings: 72 h
IMC-1 (IL-2 20 ng/mL) [17] = test: as above; settings: 72 h
KAI3 (IL-2 2.5 ng/mL) [18] = test: as above; settings: 72 h
KHYG-1 (IL-2 2.5 ng/mL) [19] = test: as above; settings: 72 h
NK-92 (IL-2 2.5 ng/mL) [20] = test: as above; settings: 72 h
NK-YS (IL-2 2.5 ng/mL) [21] = test: as above; settings: 72 h
NKL (IL-2 2.5 ng/mL) [22] = test: as above; settings: 72 h
SNK-6 (IL-2 2.5 ng/mL) [23] = test: as above; settings: 72 h
YT (IL-2 2.5 ng/mL) [24] = test: as above; settings: 72 h
[25] = system: normal primary NK cells, pool 1 (3 donors) (IL-2 2.5 ng/mL); test: as above; settings: 72 h
[26] = system: normal primary NK cells, pool 1 (3 donors), resting (IL-2 0 ng/mL); test: as above; settings: 72 h
[27] = system: normal primary NK cells, pool 2 (3 donors) (IL-2 2.5 ng/mL); test: as above; settings: 72 h
[28] = system: normal primary NK cells, pool 3 (3 donors) (IL-2 2.5 ng/mL); test: as above; settings: 72 h

CO[C@H]1C[C@@H]2CC[C@@H](C)[C@@](O)(O2)C(=O)C(=O)N2CCCC[C@H]2C(=O)O[C@H]([C@H](C)C[C@@H]2CC[C@@H](OC(=O)C(C)(CO)CO)[C@H](OC)C2)CC(=O)[C@H](C)/C=C(\C)[C@@H](O)[C@@H](OC)C(=O)[C@H](C)C[C@H](C)/C=C/C=C/C=C/1C [Temsirolimus] (max concentration tested 100 nM)
percent inhibition of viability [%]
Settings	0.01 nM	0.1 nM	1 nM	10 nM	100 nM
DERL-7 (IL-2 2.5 ng/mL) [2]	0.65	5.41	38.2	53.8	56.5
IMC-1 (IL-2 20 ng/mL) [3]	1.04	2.24	-25.1	-30.5	-23.9
KAI3 (IL-2 2.5 ng/mL) [4]	-1.9	13.1	35.1	48.4	54.7
KHYG-1 (IL-2 2.5 ng/mL) [5]	-0.71	3.41	21.7	58.9	48.8
NK-92 (IL-2 2.5 ng/mL) [6]	-7.3	7.2	12.8	33.5	36.9
NK-YS (IL-2 2.5 ng/mL) [7]	-1.82	16.2	44.5	54.4	59
NKL (IL-2 2.5 ng/mL) [8]	5.4	32.6	52	59.1	58.7
SNK-6 (IL-2 2.5 ng/mL) [9]	4.31	14	45.6	56	55.2
YT (IL-2 2.5 ng/mL) [10]	0.8	5.67	35.9	50.6	55.3
[1]	0.06	1.82	7.35	7.61	23.3
[11]	-5.13	4.99	6.83	10.7	11.2
[12]	-13.5	-0.02	6.4	10.2	4.95
[13]	-13.6	-11.5	7.96	18.8	14.9
[14]	-9.23	-18.3	1.68	12.1	12.8

Settings	drug sensitivity score
DERL-7 (IL-2 2.5 ng/mL) [16]	15.1
IMC-1 (IL-2 20 ng/mL) [17]	0
KAI3 (IL-2 2.5 ng/mL) [18]	14.2
KHYG-1 (IL-2 2.5 ng/mL) [19]	13.4
NK-92 (IL-2 2.5 ng/mL) [20]	7.04
NK-YS (IL-2 2.5 ng/mL) [21]	17.4
NKL (IL-2 2.5 ng/mL) [22]	21.6
SNK-6 (IL-2 2.5 ng/mL) [23]	17.2
YT (IL-2 2.5 ng/mL) [24]	14.4
[15]	1.25
[25]	0.28
[26]	0.07
[27]	3.24
[28]	0.84

CCS(=O)(=O)c1cccc(-c2cc(C(=O)NC3CCN(C)CC3)c(C)c3[nH]c4ncc(C)cc4c23)c1 [TAK-901] (max concentration tested 1000 nM)
percent inhibition of viability [%]
Settings	0.1 nM	1 nM	10 nM	100 nM	1000 nM
DERL-7 (IL-2 2.5 ng/mL) [2]	-2.6	5.56	-0.1	67.8	79.7
IMC-1 (IL-2 20 ng/mL) [3]	-1.14	1.82	-2.81	39.8	96.9
KAI3 (IL-2 2.5 ng/mL) [4]	1.13	2.62	9.88	32.9	77.5
KHYG-1 (IL-2 2.5 ng/mL) [5]	-0.42	-4.46	-1.82	9.29	69
NK-92 (IL-2 2.5 ng/mL) [6]	-8.6	-16.9	-4.19	-5.4	6
NK-YS (IL-2 2.5 ng/mL) [7]	-2.75	-0.83	5.54	65.6	70.5
NKL (IL-2 2.5 ng/mL) [8]	-9.65	-9.74	-13.2	31.8	67.5
SNK-6 (IL-2 2.5 ng/mL) [9]	6.55	11.7	6.25	25.7	70.1
YT (IL-2 2.5 ng/mL) [10]	0.92	-0.2	0.62	11.9	28.7
[1]	-4.46	-2.36	-2.68	2.78	47.6
[11]	-7.61	-7.94	3.96	1	52
[12]	-2.04	-13.9	9.75	-5.23	39.3
[13]	-4.84	-2.84	-10.5	-3.4	24.9
[14]	1.04	-10.9	-10.6	-10.1	8.18

Settings	drug sensitivity score
DERL-7 (IL-2 2.5 ng/mL) [16]	12.5
IMC-1 (IL-2 20 ng/mL) [17]	10.6
KAI3 (IL-2 2.5 ng/mL) [18]	8.03
KHYG-1 (IL-2 2.5 ng/mL) [19]	5.36
NK-92 (IL-2 2.5 ng/mL) [20]	0
NK-YS (IL-2 2.5 ng/mL) [21]	12.9
NKL (IL-2 2.5 ng/mL) [22]	7.8
SNK-6 (IL-2 2.5 ng/mL) [23]	6.86
YT (IL-2 2.5 ng/mL) [24]	2.64
[15]	2.88
[25]	2.88
[26]	1.6
[27]	0.75
[28]	0
